Data as given in patent publication US20170217976A1, “6-(AMINO ACID)-MORPHINAN DERIVATIVES IN COMBINATION WITH PERMEATION […] FOR USE AS AN ORALLY, […], TRA[…] NASALLY AD[…]” (C[…], priority 2014, published 2017).
Where two headings read alike, the source gives them in different places.

How the values were obtained:
[1] = biological target: T1, MOR (Rattus norvegicus, UniProt P33535); assay: Opioid receptor binding, MOR, rat brain membranes
T1 construct: from tissue

[2] = biological target: T2, DOR (Rattus norvegicus, UniProt P33533); assay: Opioid receptor binding, DOR, rat brain membranes
T2 construct: from tissue

[3] = biological target: T3, human MOP expressed in CHO cells (Homo sapiens, UniProt P35372); assay: [35S]GTPγS binding, antagonism at MOR (Ke against DAMGO); format: biochemical; settings: for Kb: [35S]GTPγS binding, MOR Ke, Table 1-6, antagonist Ke measured against DAMGO
T3 construct: expressed in transfected cells; host or cells: CHO cells (per the unit's head)

[4] = biological target: T4, KOR (Cavia porcellus, UniProt P41144); assay: Opioid receptor binding, KOR, guinea pig brain membranes
T4 construct: from tissue

[5] = Binding Ki MOR, Table 1-6, rat brain membranes
[6] = Binding Ki MOR, Table 2-6, rat brain membranes
[7] = Binding Ki DOR, Table 1-6, rat brain membranes
[8] = Binding Ki DOR, Table 2-6, rat brain membranes
[9] = Binding Ki KOR, Table 1-6, guinea pig brain membranes
[10] = Binding Ki KOR, Table 2-6, guinea pig brain membranes
[11] = in vitro binding assay, rat brain membranes, read-out: Binding Ki (nM) MOR
[12] = in vitro binding assay, rat brain membranes, read-out: Binding Ki (nM) DOR
[13] = in vitro binding assay, guinea pig brain membranes, read-out: Binding Ki (nM) KOR
[14] = Binding Ki (nM) MOR, in vitro binding assay, rat brain membranes
[15] = Binding Ki MOR, Table 1-4, rat brain membranes
[16] = Binding Ki (nM) DOR, in vitro binding assay, rat brain membranes
[17] = Binding Ki DOR, Table 1-4, rat brain membranes
[18] = Binding Ki (nM) KOR, in vitro binding assay, guinea pig brain membranes
[19] = Binding Ki KOR, Table 1-4, guinea pig brain membranes

T4 sequence (P41144 whole entry): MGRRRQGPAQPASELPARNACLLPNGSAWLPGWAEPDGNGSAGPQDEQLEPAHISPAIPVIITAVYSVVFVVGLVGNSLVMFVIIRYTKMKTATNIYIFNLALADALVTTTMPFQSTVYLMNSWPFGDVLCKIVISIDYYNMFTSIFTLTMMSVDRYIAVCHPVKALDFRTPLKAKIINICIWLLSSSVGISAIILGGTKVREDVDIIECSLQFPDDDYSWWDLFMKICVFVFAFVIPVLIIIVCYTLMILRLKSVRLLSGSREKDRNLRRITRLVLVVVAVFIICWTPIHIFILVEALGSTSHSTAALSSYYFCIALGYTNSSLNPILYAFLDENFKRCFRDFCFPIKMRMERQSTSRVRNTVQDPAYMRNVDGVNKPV
T1 sequence (P33535 whole entry): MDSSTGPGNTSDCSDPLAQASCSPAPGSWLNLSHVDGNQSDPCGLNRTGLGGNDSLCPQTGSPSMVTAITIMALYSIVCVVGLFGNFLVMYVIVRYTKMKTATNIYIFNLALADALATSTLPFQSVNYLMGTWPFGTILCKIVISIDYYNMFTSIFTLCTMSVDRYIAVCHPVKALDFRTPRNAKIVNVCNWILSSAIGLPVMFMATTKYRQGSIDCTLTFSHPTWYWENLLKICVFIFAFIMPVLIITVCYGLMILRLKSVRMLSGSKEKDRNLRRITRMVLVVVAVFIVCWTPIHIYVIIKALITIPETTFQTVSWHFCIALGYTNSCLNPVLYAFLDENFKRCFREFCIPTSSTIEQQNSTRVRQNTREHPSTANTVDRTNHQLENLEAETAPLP
T3 sequence (P35372 whole entry): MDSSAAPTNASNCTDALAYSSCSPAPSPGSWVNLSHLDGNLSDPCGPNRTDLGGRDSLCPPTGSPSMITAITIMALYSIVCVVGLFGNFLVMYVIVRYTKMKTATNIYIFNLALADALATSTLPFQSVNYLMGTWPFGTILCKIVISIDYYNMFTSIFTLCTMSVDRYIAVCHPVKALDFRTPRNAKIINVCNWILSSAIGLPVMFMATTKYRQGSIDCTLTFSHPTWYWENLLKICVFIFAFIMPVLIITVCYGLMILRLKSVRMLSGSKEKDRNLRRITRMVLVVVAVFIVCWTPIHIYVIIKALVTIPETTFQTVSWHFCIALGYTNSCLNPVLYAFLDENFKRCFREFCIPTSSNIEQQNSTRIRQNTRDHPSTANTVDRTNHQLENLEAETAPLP
T2 sequence (P33533 whole entry): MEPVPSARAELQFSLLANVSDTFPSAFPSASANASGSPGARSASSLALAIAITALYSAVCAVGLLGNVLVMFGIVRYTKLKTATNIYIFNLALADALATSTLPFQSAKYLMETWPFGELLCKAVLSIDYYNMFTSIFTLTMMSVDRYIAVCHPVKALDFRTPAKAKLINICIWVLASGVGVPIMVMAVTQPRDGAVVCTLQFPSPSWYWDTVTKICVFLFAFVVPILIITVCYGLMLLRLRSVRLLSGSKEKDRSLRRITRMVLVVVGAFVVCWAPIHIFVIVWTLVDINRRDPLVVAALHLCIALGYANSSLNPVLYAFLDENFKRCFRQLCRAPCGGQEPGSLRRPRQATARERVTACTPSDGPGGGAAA

Row | Compound | Ki [1, 5] [nM] | Ki [1, 6] [nM] | Ki [2, 7] [nM] | Ki [2, 8] [nM] | Ki [4, 9] [nM] | Ki [4, 10] [nM] | also measured
1 | O=C(O)C(Cc1ccccc1)NC1CCC2(O)C3Cc4ccc(O)c5c4C2(CCN3CC2CC2)C1O5 (single isomer, unassigned) [Compound 59] | 1.41 | 1.41 | 3.53 | 3.53 | 2.65 | 2.65 | EC50 [3]: > 10000 nM; Kb [3]: 0.25 nM
2 | O=C(O)C(Cc1ccccc1)NC1CCC2(O)C3Cc4ccc(O)c5c4C2(CCN3CC2CC2)C1O5 (single isomer, unassigned) [Compound 60] | 1.83 | 1.83 | 2.79 | 2.79 | 8.99 | 8.99 | Kb [3]: 0.24 nM; EC50 ([3]; read-out: [35S]GTPγS binding, MOR EC50, Table 1-6, stimulation of [35S]GTPγS binding): > 10000 nM
3 | CCO[C@@]12CCC(=O)[C@@H]3Oc4c(O)ccc5c4[C@@]31CCN(CC1CC1)[C@@H]2C5 [Compound 14-OEt-NTX, 14-O-Ethylnaltrexone, reference compound] | 0.35 | 0.35 | 4.13 | 4.13 | 0.93 | 0.93 | EC50 [3]: > 10000 nM; Kb [3]: 0.31 nM
4 | CO[C@@]12CCC(=O)[C@@H]3Oc4c(O)ccc5c4[C@@]31CCN(CC1CC1)[C@@H]2C5 [Compound 14-OMe-NTX, 14-O-Methylnaltrexone, reference compound] | 0.46 | 0.46 | 7.88 | 7.88 | 1.17 | 1.17 | EC50 [3]: > 10000 nM; Kb [3]: 0.49 nM
5 | CO[C@@]12CC[C@@H](N[C@@H](CCCCN)C(=O)O)[C@@H]3Oc4c(O)ccc5c4[C@@]31CCN(C)[C@@H]2C5 [Compound 39] | – | – | – | – | – | – | Ki ([1]; Table 1-4, rat brain membranes, read-out: Binding Ki MOR): 0.53 nM; Ki [1, 11]: 0.53 nM; Ki ([2]; Table 1-4, rat brain membranes, read-out: Binding Ki DOR): 3.34 nM; Ki [2, 12]: 3.34 nM; Ki ([4]; Table 1-4, guinea pig brain membranes, read-out: Binding Ki KOR): 33.7 nM; Ki [4, 13]: 33.7 nM
6 | CO[C@@]12CC[C@H](N[C@@H](CC(C)C)C(=O)O)[C@@H]3Oc4c(O)ccc5c4[C@@]31CCN(C)[C@@H]2C5 [Compound 40] | – | – | – | – | – | – | Ki [1, 14]: 0.68 nM; Ki [1, 15]: 0.68 nM; Ki [2, 16]: 2.34 nM; Ki [2, 17]: 2.34 nM; Ki [4, 18]: 141 nM; Ki [4, 19]: 141 nM
7 | CO[C@@]12CC[C@@H](N[C@@H](CC(C)C)C(=O)O)[C@@H]3Oc4c(O)ccc5c4[C@@]31CCN(C)[C@@H]2C5 [Compound 41] | – | – | – | – | – | – | Ki [1, 14]: 1.32 nM; Ki [1, 15]: 1.32 nM; Ki [2, 16]: 1.01 nM; Ki [2, 17]: 1.01 nM; Ki [4, 18]: 297 nM; Ki [4, 19]: 297 nM
8 | CC[C@H](C)[C@H](N[C@H]1CC[C@@]2(OC)[C@H]3Cc4ccc(O)c5c4[C@@]2(CCN3C)[C@H]1O5)C(=O)O [Compound 42] | – | – | – | – | – | – | Ki [1, 14]: 0.84 nM; Ki [1, 15]: 0.84 nM; Ki [2, 16]: 3.2 nM; Ki [2, 17]: 3.2 nM; Ki [4, 18]: 131 nM; Ki [4, 19]: 131 nM
9 | CC[C@H](C)[C@H](N[C@@H]1CC[C@@]2(OC)[C@H]3Cc4ccc(O)c5c4[C@@]2(CCN3C)[C@H]1O5)C(=O)O [Compound 43] | – | – | – | – | – | – | Ki [1, 14]: 1.46 nM; Ki [1, 15]: 1.46 nM; Ki [2, 16]: 1.3 nM; Ki [2, 17]: 1.3 nM; Ki [4, 18]: 163 nM; Ki [4, 19]: 163 nM
10 | CCO[C@@]12CC[C@H](N[C@@H](Cc3ccccc3)C(=O)O)[C@@H]3Oc4c(O)ccc5c4[C@@]31CCN(CC1CC1)[C@@H]2C5 [Compound 55] | – | 0.35 | – | 0.7 | – | 2.6 | –
11 | CCO[C@@]12CC[C@@H](N[C@@H](Cc3ccccc3)C(=O)O)[C@@H]3Oc4c(O)ccc5c4[C@@]31CCN(CC1CC1)[C@@H]2C5 [Compound 56] | – | 1.04 | – | 1.76 | – | 11.6 | –
12 | CO[C@@]12CC[C@H](N[C@@H](Cc3ccccc3)C(=O)O)[C@@H]3Oc4c(O)ccc5c4[C@@]31CCN(CC1CC1)[C@@H]2C5 [Compound 57] | – | 0.51 | – | 1.17 | – | 4.21 | –
13 | CO[C@@]12CC[C@@H](N[C@@H](Cc3ccccc3)C(=O)O)[C@@H]3Oc4c(O)ccc5c4[C@@]31CCN(CC1CC1)[C@@H]2C5 [Compound 58] | – | – | – | – | – | – | Ki ([1]; Table 2-6, rat brain membranes, read-out: Binding Ki MOR): 1.23 nM; Ki ([2]; Table 2-6, rat brain membranes, read-out: Binding Ki DOR): 2.02 nM; Ki ([4]; Table 2-6, guinea pig brain membranes, read-out: Binding Ki KOR): 8.42 nM
14 | O=C(O)CN[C@H]1CC[C@@]2(O)[C@H]3Cc4ccc(O)c5c4[C@@]2(CCN3CC2CC2)[C@H]1O5 [Compound 67] | 0.88 | – | 13.1 | – | 2.81 | – | –
15 | CO[C@@]12CC[C@@H](N[C@@H](C)C(=O)O)[C@@H]3Oc4c(O)ccc5c4[C@@]31CCN(CC1CC1)[C@@H]2C5 [Compound 72] | 2.13 | 2.13 | 5.8 | 5.8 | 11.5 | 11.5 | –
16 | CO[C@@]12CC[C@@H](N[C@@H](CC(=O)O)C(=O)O)[C@@H]3Oc4c(O)ccc5c4[C@@]31CCN(CC1CC1)[C@@H]2C5 [Compound 73] | 2.24 | 2.24 | 0.64 | 0.64 | 11.7 | 11.7 | –
17 | COC12CCC(NC(CCC(=O)O)C(=O)O)C3Oc4c(O)ccc5c4C31CCN(CC1CC1)C2C5 (centres unmarked) [Compound 74] | 1.93 | 1.93 | 3.61 | 3.61 | 6.66 | 6.66 | –
18 | CO[C@@]12CC[C@@H](N[C@@H](CCC(=O)O)C(=O)O)[C@@H]3Oc4c(O)ccc5c4[C@@]31CCN(CC1CC1)[C@@H]2C5 [Compound 75] | 3.35 | 3.35 | 2.77 | 2.77 | 12.9 | 12.9 | –
19 | CO[C@@]12CC[C@H](N[C@@H](CC(C)C)C(=O)O)[C@@H]3Oc4c(O)ccc5c4[C@@]31CCN(CC1CC1)[C@@H]2C5 [Compound 76] | – | 0.72 | – | 2.2 | – | 7.87 | –
20 | CO[C@@]12CC[C@@H](N[C@@H](CC(C)C)C(=O)O)[C@@H]3Oc4c(O)ccc5c4[C@@]31CCN(CC1CC1)[C@@H]2C5 [Compound 77] | – | 1.96 | – | 1.13 | – | 11 | –
21 | CC[C@H](C)[C@H](N[C@@H]1CC[C@@]2(OC)[C@H]3Cc4ccc(O)c5c4[C@@]2(CCN3CC2CC2)[C@H]1O5)C(=O)O [Compound 78] | – | 1.62 | – | 1.44 | – | 9.49 | –
22 | CC[C@H](N[C@@H]1CC[C@@]2(OC)[C@H]3Cc4ccc(O)c5c4[C@@]2(CCN3CC2CC2)[C@H]1O5)C(=O)O [Compound 79] | 3.39 | – | 6.2 | – | 19.1 | – | –
23 | CCOC(=O)CN[C@H]1CC[C@@]2(OC)[C@H]3Cc4ccc(O)c5c4[C@@]2(CCN3C)[C@H]1O5 [HS730-Et ester] | – | – | – | – | – | – | Ki [1, 14]: 0.28 nM; Ki [2, 16]: 0.96 nM; Ki [4, 18]: 8.57 nM
24 | CO[C@@]12CC[C@H](NCC(=O)OCc3ccccc3)[C@@H]3Oc4c(O)ccc5c4[C@@]31CCN(C)[C@@H]2C5 [HS730-benzyl ester] | – | – | – | – | – | – | Ki [1, 14]: 0.19 nM; Ki [2, 16]: 0.91 nM; Ki [4, 18]: 0.47 nM
25 | CCCCCCCCOC(=O)CN[C@H]1CC[C@@]2(OC)[C@H]3Cc4ccc(O)c5c4[C@@]2(CCN3C)[C@H]1O5 [HS730-nOc ester] | – | – | – | – | – | – | Ki [1, 11]: 1.29 nM; Ki [2, 12]: 3.23 nM; Ki [4, 13]: 2.97 nM
26 | CO[C@@]12CC[C@@H](NCC(=O)OCc3ccccc3)[C@@H]3Oc4c(O)ccc5c4[C@@]31CCN(C)[C@@H]2C5 [HS731-benzyl ester] | – | – | – | – | – | – | Ki [1, 14]: 0.29 nM; Ki [2, 12]: 0.74 nM; Ki [4, 13]: 2.86 nM
27 | CCCCCCCCOC(=O)CN[C@@H]1CC[C@@]2(OC)[C@H]3Cc4ccc(O)c5c4[C@@]2(CCN3C)[C@H]1O5 [HS731-nOc ester] | – | – | – | – | – | – | Ki [1, 11]: 2.56 nM; Ki [2, 12]: 2.71 nM; Ki [4, 13]: 3.87 nM
28 | CO[C@@]12CC[C@@H](NCC(=O)OC(C)(C)C)[C@@H]3Oc4c(O)ccc5c4[C@@]31CCN(C)[C@@H]2C5 [HS731-t-Bu ester] | – | – | – | – | – | – | Ki [1, 14]: 1.3 nM; Ki [2, 12]: 0.68 nM; Ki [4, 13]: 56.2 nM
